This note sets out measurements from US20080207573A1, “COMPOUNDS FOR TREATING VIRAL INFECTIONS” (priority 2006, published 2008).

Like-named read-outs stand apart in the source and are kept apart here.

By IC50 is commonly meant the concentration at which inhibition is half-maximal.

Data set [1] in a line: Human Liver Microsome Assay (metabolic stability). Type of data set: in vitro ADME. Particulars: human liver microsomes 0.5 mg/mL, test article 1 μM; for half-life at 1 μM: pH 7.4, read-out: Metabolic Stability in Human liver Microsomes T1/2. The method, then:
Human Liver Microsome Assay
The microsomal fraction of liver homogenates contains endoplasmic reticulum derived cytochrome P450 enzymes that constitute the major phase I drug metabolizing enzymes. Briefly, to aid prediction of the in vivo rate of clearance of a dosed test article, an in vitro incubation containing human liver microsomes (0.5 mg/mL final protein concentration) and test article (1 μM incubation concentration) in the presence and absence of the necessary cofactor NADPH (1 mM incubation concentration) is conducted. The incubation is performed in a buffered aqueous system (100 mM potassium phosphate, pH 7.4). The concentration of the parent compound is determined using liquid chromatography coupled with tandem mass spectrometry and reported as percent remaining from a zero minute concentrations.

A further data set has as its system HIV-1IIIB. Nature of the data set: PBMC Drug Susceptibility Assay (HIV-1 p24 in supernatant). The format is cell-based. The settings on record: Human immunodeficiency virus 1, PBMC, 168 h, HIV-1IIIB-infected human PBMCs, seven days. An excerpt: PBMC Drug Susceptibility Assay
Human peripheral blood mononuclear cells (PBMCS) were used to test compound antiviral activity as an indicator for clinical efficacy. PBMCs were isolated from two donors using a Ficoll-Hypaque density gradient, pooled and stimulated with PHA-L for three days. After stimulation, the cells were washed and maintained in culture medium containing IL-2. The stimulated cells were then mock-infected or batch-infected with the strain HIV-1IIIB at MOI 0.01 for one hour. Cells (unwashed) were then plated in the presence of increasing concentrations of compound and incubated for seven days. […] Compound toxicity in mock-infected cells was analyzed using the WST-1 assay.

Data set [2] is described as follows: Compound toxicity in mock-infected MT-4 cells (WST-1 assay). The settings on record: human, read-out: TC50 (concentration of compound that results in death of 50% of the host cells). Type of data set: cell-based. How it is done: (§1) The HTLV-1 transformed T cell line, MT-4, is highly susceptible to HIV-1 infection. Anti-HIV-1 agents were evaluated in this target cell line by protection from the HIV-induced cytopathic effect. In this assay, viability of both HIV-1 and mock-infected cells was assessed in a […] assay that monitors the ability of metabolically-active cells to reduce the tetrazolium salt WST-1. Cytoprotection by antiviral compounds is indicated by the positive readout of increased WST-1 cleavage.
(§2) Briefly, exponentially growing MT-4 cells were mock-infected or batch-infected with the HIV-1 laboratory strain, NL4-3, at a multiplicity of infection of 0.0005. Following a two hour infection, the cells were washed to remove unbound virus and plated in the presence of increasing concentrations of compound. After four days incubation, cytoprotection in the infected cells and compound toxicity in mock-infected cells were analyzed using the WST-1 assay.
On the technique in general: Tetrazolium dyes change colour on reduction, which living cells bring about.

Data set [3] relates to HIV-1 laboratory strain, NL4-3. As to the kind of experiment: MT-4 Cytoprotection Assay (protection from HIV-induced cytopathic effect, WST-1 readout). Type of data set: cell-based. The method, then:
MT-4 Cytoprotection Assay
as §1, §2
On the technique in general: Damage to the host cells serves as the signal in cytopathic effect assays.

The mark [4] stands for this setting: Human immunodeficiency virus 1, NL43, list of representative compounds, read-out: EC50 of less than about 100 nm (representative compounds).
Setting [5] is: Human immunodeficiency virus 1, NL43, MT4, Table 7, MT-4 cells, HIV-1 NL4-3, read-out: MT4 EC50.

Turning to `C=C(C)[C@@H]1CC[C@]2(C(=O)N[C@H](C)c3ccccn3)CC[C@]3(C)C(CCC4[C@@]5(C)CCC(OC(=O)CC(C)(C)C(=O)O)C(C)(C)C5CC[C@]43C)C12` (single isomer, unassigned) [Compound 105a], in data set [1], the “Metabolic Stability in Human liver Microsomes % compound remaining at 40 minutes” value is given as 44% and the half-life at 1 μM was determined as 36 min. The compound also yielded an IC50 with HIV-1IIIB (Table 6) of 0.0026 µM. `C=C(C)[C@@H]1CC[C@]2(C(=O)N[C@@H](C)c3ccccn3)CC[C@]3(C)C(CCC4[C@@]5(C)CCC(OC(=O)CC(C)(C)C(=O)O)C(C)(C)C5CC[C@]43C)C12` (single isomer, unassigned) [Compound 105b]: in data set [1], the “Metabolic Stability in Human liver Microsomes % compound remaining at 40 minutes” value is given as 32% and the half-life at 1 μM came out at 27 min. The compound further registered an IC50 with HIV-1IIIB (Table 6) of 0.0031 µM. For the compound `C=C(C)[C@@H]1CC[C@]2(C(=O)NCc3ccncc3)CC[C@]3(C)[C@H](CC[C@@H]4[C@@]5(C)CC[C@H](O)C(C)(C)[C@@H]5CC[C@]43C)[C@@H]12` [Compound 46], the CC50 at 4 days in data set [2] is above 10 µM. Also, the EC50 in data set [3] (Human immunodeficiency virus 1, NL43, MT4, 96 h, MT-4 cells, HIV-1 NL4-3, four days, read-out: EC50 (concentration of compound that reduces the virus induced cytopathic effect by 50% (MT-4))) was around 8.6 µM.

For `C=C(C)[C@@H]1CC[C@]2(C(=O)NCc3nc4ccccc4s3)CC[C@]3(C)[C@H](CC[C@@H]4[C@@]5(C)CC[C@H](OC(=O)CC(C)(C)C(=O)O)C(C)(C)[C@@H]5CC[C@]43C)[C@@H]12` [Compound 106], the EC50 in data set [3] (setting [4]) is below 0.1 µM. Regarding `C=C(C)[C@@H]1CC[C@]2(C(=O)NCc3cccc(C)n3)CC[C@]3(C)[C@H](CC[C@@H]4[C@@]5(C)CC[C@H](OC(=O)CC(C)(C)C(=O)O)C(C)(C)[C@@H]5CC[C@]43C)[C@@H]12` [Compound 108], the EC50 in data set [3] (setting [4]) is below 0.1 µM. The same measure, in the same setting: the result for `C=C(C)[C@@H]1CC[C@]2(C(=O)NCc3nc4ccccc4n3C)CC[C@]3(C)[C@H](CC[C@@H]4[C@@]5(C)CC[C@H](OC(=O)CC(C)(C)C(=O)O)C(C)(C)[C@@H]5CC[C@]43C)[C@@H]12` [Compound 109] reads below 0.1 µM; that for `C=C(C)[C@@H]1CC[C@]2(C(=O)NCc3nc4ccccc4[nH]3)CC[C@]3(C)[C@H](CC[C@@H]4[C@@]5(C)CC[C@H](OC(=O)CC(C)(C)C(=O)O)C(C)(C)[C@@H]5CC[C@]43C)[C@@H]12` [Compound 110], below 0.1 µM; that for `C=C(C)[C@@H]1CC[C@]2(C(=O)NCc3ccc4ccccc4n3)CC[C@]3(C)[C@H](CC[C@@H]4[C@@]5(C)CC[C@H](OC(=O)CC(C)(C)C(=O)O)C(C)(C)[C@@H]5CC[C@]43C)[C@@H]12` [Compound 111], below 0.1 µM.

Consider `C=C(C)[C@@H]1CC[C@]2(C(=O)NCc3cc(C)ccn3)CC[C@]3(C)[C@H](CC[C@@H]4[C@@]5(C)CC[C@H](OC(=O)CC(C)(C)C(=O)O)C(C)(C)[C@@H]5CC[C@]43C)[C@@H]12` [Compound 112], for which the EC50 in data set [3] (setting [4]) is below 0.1 µM. Still for that read-out and setting: the result for `C=C(C)[C@@H]1CC[C@]2(C(=O)NCc3ncccc3C)CC[C@]3(C)[C@H](CC[C@@H]4[C@@]5(C)CC[C@H](OC(=O)CC(C)(C)C(=O)O)C(C)(C)[C@@H]5CC[C@]43C)[C@@H]12` [Compound 113] reads below 0.1 µM; that for `C=C(C)[C@@H]1CC[C@]2(C(=O)NCc3ccc(Cl)cn3)CC[C@]3(C)[C@H](CC[C@@H]4[C@@]5(C)CC[C@H](OC(=O)CC(C)(C)C(=O)O)C(C)(C)[C@@H]5CC[C@]43C)[C@@H]12` [Compound 114], below 0.1 µM. The same measure, in the same setting: then `C=C(C)[C@@H]1CC[C@]2(C(=O)NC(Cc3ccccc3)C(=O)O)CC[C@]3(C)[C@H](CC[C@@H]4[C@@]5(C)CC[C@H](OC(=O)CC(C)(C)C(=O)O)C(C)(C)[C@@H]5CC[C@]43C)[C@@H]12` (stereo partly shown) [Compound 115], with below 0.1 µM; and `C=C(C)[C@@H]1CC[C@]2(C(=O)N[C@@H](C)c3ccc(OC)cc3)CC[C@]3(C)[C@H](CC[C@@H]4[C@@]5(C)CC[C@H](OC(=O)CC(C)(C)C(=O)O)C(C)(C)[C@@H]5CC[C@]43C)[C@@H]12` [Compound 117], with below 0.1 µM; and `C=C(C)[C@@H]1CC[C@]2(C(=O)NC(Cc3ccc(OC)cc3)C(=O)O)CC[C@]3(C)[C@H](CC[C@@H]4[C@@]5(C)CC[C@H](OC(=O)CC(C)(C)C(=O)O)C(C)(C)[C@@H]5CC[C@]43C)[C@@H]12` (stereo partly shown) [Compound 119], with below 0.1 µM. Take `C=C(C)[C@@H]1CC[C@]2(C(=O)NC(C(=O)O)c3ccc(OC)cc3)CC[C@]3(C)[C@H](CC[C@@H]4[C@@]5(C)CC[C@H](OC(=O)CC(C)(C)C(=O)O)C(C)(C)[C@@H]5CC[C@]43C)[C@@H]12` (stereo partly shown) [Compound 120]: in data set [3] (setting [4]), the EC50 is below 0.1 µM. In the case of `C=C(C)[C@@H]1CC[C@]2(C(=O)NC3(c4ccccn4)CC3)CC[C@]3(C)[C@H](CC[C@@H]4[C@@]5(C)CC[C@H](OC(=O)CC(C)(C)C(=O)O)C(C)(C)[C@@H]5CC[C@]43C)[C@@H]12` [Compound 121], in data set [1], the “Metabolic Stability in Human liver Microsomes % compound remaining at 40 minutes” value is reported as 42% and the half-life at 1 μM is 30 min. The IC50 in the data set on HIV-1IIIB (Table 6) worked out at 0.018 µM. Besides, the EC50 in data set [3] (setting [4]) was below 0.1 µM. For `CC(C)[C@@H]1CC[C@]2(C(=O)NCc3ccccc3C(=O)O)CC[C@]3(C)[C@H](CC[C@@H]4[C@@]5(C)CC[C@H](OC(=O)CC(C)(C)C(=O)O)C(C)(C)[C@@H]5CC[C@]43C)[C@@H]12` [Compound 122], the EC50 in data set [3] (setting [4]) is below 0.1 µM. Still for that read-out and setting: the result for `CC(C)[C@@H]1CC[C@]2(C(=O)NCC3CCCO3)CC[C@]3(C)[C@H](CC[C@@H]4[C@@]5(C)CC[C@H](OC(=O)CC(C)(C)C(=O)O)C(C)(C)[C@@H]5CC[C@]43C)[C@@H]12` (stereo partly shown) [Compound 123] reads below 0.1 µM; that for `C=C(C)[C@@H]1CC[C@]2(C(=O)NCCC3CCCCC3)CC[C@]3(C)[C@H](CC[C@@H]4[C@@]5(C)CC[C@H](OC(=O)CC(C)(C)C(=O)O)C(C)(C)[C@@H]5CC[C@]43C)[C@@H]12` [Compound 124], below 0.1 µM.

Take `C=C(C)[C@@H]1CC[C@]2(C(=O)NC(C)(C)c3ccccn3)CC[C@]3(C)C(CCC4[C@@]5(C)CCC(OC(=O)CC(C)(C)C(=O)O)C(C)(C)C5CC[C@]43C)C12` (stereo partly shown) [Compound 126]: in data set [1], the “Metabolic Stability in Human liver Microsomes % compound remaining at 40 minutes” value was determined as 47% and the half-life at 1 μM amounted to 38 min. Also, the midpoint of inhibition in the data set on HIV-1IIIB (Table 6), the IC50, lay at 0.0475 µM. With `C=C(C)[C@@H]1CC[C@]2(C(=O)Nc3cccc4cccnc34)CC[C@]3(C)C(CCC4[C@@]5(C)CCC(OC(=O)CC(C)(C)C(=O)O)C(C)(C)C5CC[C@]43C)C12` (stereo partly shown) [Compound 127], in data set [3] (setting [5]), the EC50 was 3.1 µM. `C=C(C)[C@@H]1CC[C@]2(C(=O)NCc3ccc(F)cc3C(=O)O)CC[C@]3(C)C(CCC4[C@@]5(C)CCC(OC(=O)CC(C)(C)C(=O)O)C(C)(C)C5CC[C@]43C)C12` (stereo partly shown) [Compound 128] registered an IC50 in the data set on HIV-1IIIB (Table 7) of 0.0036 µM. Also, in data set [3] (setting [5]), the EC50 came to 0.028 µM.

On to `C=C(C)[C@@H]1CC[C@]2(C(=O)NCc3ccc(C(=O)O)s3)CC[C@]3(C)C(CCC4[C@@]5(C)CCC(OC(=O)CC(C)(C)C(=O)O)C(C)(C)C5CC[C@]43C)C12` (stereo partly shown) [Compound 129], for which, in data set [3] (setting [5]), the EC50 is 0.371 µM. The compound `C=C(C)[C@@H]1CC[C@]2(C(=O)NCc3cccnc3C(=O)O)CC[C@]3(C)C(CCC4[C@@]5(C)CCC(OC(=O)CC(C)(C)C(=O)O)C(C)(C)C5CC[C@]43C)C12` (stereo partly shown) [Compound 130] came in with an IC50 in the data set on HIV-1IIIB (Table 7) of 0.044 µM. For the same compound, in data set [3] (setting [5]), the EC50 amounted to 0.024 µM. In turn, `C=C(C)[C@@H]1CC[C@]2(C(=O)NCc3ccc4cccc(O)c4n3)CC[C@]3(C)C(CCC4[C@@]5(C)CCC(OC(=O)CC(C)(C)C(=O)O)C(C)(C)C5CC[C@]43C)C12` (stereo partly shown) [Compound 131] registered an IC50 in the data set on HIV-1IIIB (Table 7) of 0.0035 µM. Besides, the EC50 in data set [3] (setting [5]) worked out at 0.003 µM. The matching figures for `C=C(C)[C@@H]1CC[C@]2(C(=O)N[C@@H](C)c3cccc[n+]3[O-])CC[C@]3(C)C(CCC4[C@@]5(C)CCC(OC(=O)CC(C)(C)C(=O)O)C(C)(C)C5CC[C@]43C)C12` (stereo partly shown) [Compound 132]: 0.044 µM and 0.036 µM.
